{"source": "patent US12501899B2", "about": "“Mite infestation treatment” (priority 2019, dated 2025)", "format_in_all_cases": "in vivo", "key": {"Ixodes ricinus": {"tested_on": "Ixodes ricinus", "assay": "Oral acaricidal test on ticks in membrane feeding wells with treated blood", "details": "for mortality at 1 ppm / mortality at 10 ppm / mortality at 100 ppm: Ixodes ricinus, po", "method": "A laboratory study was conducted to determine the oral acaricidal properties of three compounds according to the invention (SN0305, SN0306 and SN0307) against Ixodes ricinus. Each compound was tested at 1, 10 and 100 ppm, and compared to a negative control corresponding to solvent alone (0.1% DMSO). Amitraz at 100 ppm was used as a positive control.\nThe Ixodes ricinus ticks (nymphs and adults) were placed for 24 hours on a membrane in feeding wells containing blood mixed with the tested compounds. Tick mortality (number of dead, moribund, or unaffected ticks in each well), attachment to the membrane (number of ticks attached/detached in each well), and the behavior (presence or absence of twitches) were examined 1, 3, 6, 12, 24, 48, 72, and 96 hours after the onset of tick exposure to the compounds.\nTicks (Ixodes ricinus) were collected. Collected adult females were kept separate from the nymphs and both were placed in sterile tubes in a humidity chamber to provide ˜80% humidity and 17° C. Only healthy ticks (females/nymphs) were chosen for the experiment.\nBatches of 12 adults or nymphs were inserted into the feeding wells. After about 24 hours, their attachment was examined with a brush.\nThe efficiency of three compounds (SN0305, SN0306 and SN0307), each tested at three concentrations (1, 10, 100 ppm), was compared to the solvent control (0.1% DMSO, Sigma-Aldrich D-5879; Lot 101K0028) and to the positive control (Amitraze at 100 ppm).\nSilicone-coated membranes with a thickness comprised between 110 and 140 μm were used for the construction of the feeding units.\nFeeding units (sterilized acrylic glass tubes) were placed in feeding wells made of sterilized six-well plates.\n3.1 ml of sterile 10^−3 M ATP-enriched blood was applied to each feeding well. Feeding wells were then inserted into a heated water bath (FIG. 12) and maintained at 37° C.±2° C.\nStock solutions of 100,000 ppm were prepared and tenth dilutions were carried out in 0.1% DMSO to reach the desired concentrations. After tick attachment (24 hours after placing the ticks in the feeding wells), 3.1 μl of the solutions were added to each feeding well containing 3.1 ml of blood. Blood was changed after 12 hours with fresh supplementation of the compounds to be tested. The ticks were exposed to the product for a total of 24 hours, after which the blood was again changed to fresh, untreated blood.\nTick mortality (number of dead, moribund or unaffected ticks in each well), attachment (number of attached/detached ticks in each well) and behavior (presence, absence and intensity of convulsions) were examined 1, 3, 6, 12, 24, 48, 72, and 96 hours after the start of tick exposure to the compound."}, "bees": {"tested_on": "bees", "assay": "Mortality of adult bees in treated beehives (dead bee traps)", "details": "220 mg/hive", "method": "(§1) 18 hives of bees were divided into 6 groups of 3 homogeneous hives as regards the strength of the colonies (number of bees) and the Varroa infestation.\n(§2) The tested compounds were applied in the form of a gel three weeks after the queen was caged. The activity of the compounds was studied for a period of 9 days.\nFor this purpose, dead bee traps disposed in front of the hives were used.\n(§3) The following compounds were tested: • Dexmedetomidine at 55 mg/hive in hydrochloride form, • Dexmedetomidine at 110 mg/hive in hydrochloride form, • Dexmedetomidine at 220 mg/hive in hydrochloride form, • Detomidine at 38.4 mg/hive in hydrochloride form, • Detomidine at 110 mg/hive in hydrochloride form, • Detomidine at 220 mg/hive in hydrochloride form, Results"}, "Varroa destructor": {"tested_on": "Varroa destructor", "assay": "Efficiency against Varroa mites in beehives outside the brood (gel application)", "details": "220 mg/hive, gel, 9 days", "text": "as §1\nThe queen of each hive was caged 3 weeks before the application of the tested compounds. The application of the tested compounds was therefore carried out in a situation outside the brood, which allows the forced passage of the Varroa mites from their reproduction phase to their phoresy phase (they are therefore all present on the bees).\nas §2\nFollowing these 9 days of treatment, a control treatment with oxalic acid was carried out (duration of treatment equal to 1 week).\nCounts of Varroa mites falling on the floor were carried out at regular time intervals to quantify the number of dead Varroa mites.\nThe efficiency of the treatment was calculated by taking the sum of all the dead Varroa mites from D0 to D9 (tested compounds) and dividing it by the sum of all the dead Varroa mites from D0 to D16 (tested compounds+control treatment).\nas §3"}, "[1]": {"details": "adult ticks, 1 h, read-out: average percentage of adult tick mortality (moribund or dead adult ticks)"}, "[2]": {"details": "adult ticks, 3 h, read-out: average percentage of adult tick mortality (moribund or dead adult ticks)"}, "[3]": {"details": "adult ticks, 6 h, read-out: average percentage of adult tick mortality (moribund or dead adult ticks)"}, "[4]": {"details": "adult ticks, 12 h, read-out: average percentage of adult tick mortality (moribund or dead adult ticks)"}, "[5]": {"details": "adult ticks, 24 h, read-out: average percentage of adult tick mortality (moribund or dead adult ticks)"}, "[6]": {"details": "adult ticks, 48 h, read-out: average percentage of adult tick mortality (moribund or dead adult ticks)"}, "[7]": {"details": "adult ticks, 72 h, read-out: average percentage of adult tick mortality (moribund or dead adult ticks)"}, "[8]": {"details": "adult ticks, 96 h, read-out: average percentage of adult tick mortality (moribund or dead adult ticks)"}, "[9]": {"details": "nymphs, 1 h, read-out: average percentage of mortality of tick nymphs (moribund or dead nymphs)"}, "[10]": {"details": "nymphs, 3 h, read-out: average percentage of mortality of tick nymphs (moribund or dead nymphs)"}, "[11]": {"details": "nymphs, 6 h, read-out: average percentage of mortality of tick nymphs (moribund or dead nymphs)"}, "[12]": {"details": "nymphs, 12 h, read-out: average percentage of mortality of tick nymphs (moribund or dead nymphs)"}, "[13]": {"details": "nymphs, 24 h, read-out: average percentage of mortality of tick nymphs (moribund or dead nymphs)"}, "[14]": {"details": "nymphs, 48 h, read-out: average percentage of mortality of tick nymphs (moribund or dead nymphs)"}, "[15]": {"details": "nymphs, 72 h, read-out: average percentage of mortality of tick nymphs (moribund or dead nymphs)"}, "[16]": {"details": "nymphs, 96 h, read-out: average percentage of mortality of tick nymphs (moribund or dead nymphs)"}}, "note": "Where a name gives a salt, the structure may show the parent alone. Read-outs that look alike come from different tables or passages of the source.", "data": [{"compound": "Cc1cccc(Cc2cnc[nH]2)c1C", "note": "[Detomidine hydrochloride, 4-[(2,3-dimethylphenyl)-methyl]-3H-imidazole]", "values": [{"measurement": "effect in terms of tick detachment (in words)", "setting": "Ixodes ricinus; 1, 10, 100 ppm, nymphs and adults", "result": "very limited effect"}, {"measurement": "detached adults in a replica", "setting": "Ixodes ricinus; 1 ppm, adult ticks", "result": 2}, {"measurement": "mortality at 1 ppm", "setting": "Ixodes ricinus; adult ticks, 1 ppm, 1 h, read-out: average percentage of adult tick mortality (moribund or dead adult ticks)", "result": 0, "unit": "%"}, {"measurement": "mortality at 1 ppm", "setting": "Ixodes ricinus; adult ticks, 1 ppm, 3 h, read-out: average percentage of adult tick mortality (moribund or dead adult ticks)", "result": 0, "unit": "%"}, {"measurement": "mortality at 1 ppm", "setting": "Ixodes ricinus; adult ticks, 1 ppm, 6 h, read-out: average percentage of adult tick mortality (moribund or dead adult ticks)", "result": 2.8, "unit": "%"}, {"measurement": "mortality at 1 ppm", "setting": "Ixodes ricinus; adult ticks, 1 ppm, 12 h, read-out: average percentage of adult tick mortality (moribund or dead adult ticks)", "result": 2.8, "unit": "%"}, {"measurement": "mortality at 1 ppm", "setting": "Ixodes ricinus; adult ticks, 1 ppm, 24 h, read-out: average percentage of adult tick mortality (moribund or dead adult ticks)", "result": 62.9, "unit": "%"}, {"measurement": "mortality at 1 ppm", "setting": "Ixodes ricinus; adult ticks, 1 ppm, 48 h, read-out: average percentage of adult tick mortality (moribund or dead adult ticks)", "result": 88.2, "unit": "%"}, {"measurement": "mortality at 1 ppm", "setting": "Ixodes ricinus; adult ticks, 1 ppm, 72 h, read-out: average percentage of adult tick mortality (moribund or dead adult ticks)", "result": 100, "unit": "%"}, {"measurement": "mortality at 1 ppm", "setting": "Ixodes ricinus; adult ticks, 1 ppm, 96 h, read-out: average percentage of adult tick mortality (moribund or dead adult ticks)", "result": 100, "unit": "%"}, {"measurement": "mortality at 10 ppm", "setting": "Ixodes ricinus; [1]", "result": 0, "unit": "%"}, {"measurement": "mortality at 10 ppm", "setting": "Ixodes ricinus; [2]", "result": 0, "unit": "%"}, {"measurement": "mortality at 10 ppm", "setting": "Ixodes ricinus; [3]", "result": 8.3, "unit": "%"}, {"measurement": "mortality at 10 ppm", "setting": "Ixodes ricinus; [4]", "result": 8.3, "unit": "%"}, {"measurement": "mortality at 10 ppm", "setting": "Ixodes ricinus; [5]", "result": 52.1, "unit": "%"}, {"measurement": "mortality at 10 ppm", "setting": "Ixodes ricinus; [6]", "result": 96.4, "unit": "%"}, {"measurement": "mortality at 10 ppm", "setting": "Ixodes ricinus; [7]", "result": 100, "unit": "%"}, {"measurement": "mortality at 10 ppm", "setting": "Ixodes ricinus; [8]", "result": 100, "unit": "%"}, {"measurement": "mortality at 100 ppm", "setting": "Ixodes ricinus; [1]", "result": 0, "unit": "%"}, {"measurement": "mortality at 100 ppm", "setting": "Ixodes ricinus; [2]", "result": 0, "unit": "%"}, {"measurement": "mortality at 100 ppm", "setting": "Ixodes ricinus; [3]", "result": 8.8, "unit": "%"}, {"measurement": "mortality at 100 ppm", "setting": "Ixodes ricinus; [4]", "result": 15.4, "unit": "%"}, {"measurement": "mortality at 100 ppm", "setting": "Ixodes ricinus; [5]", "result": 24, "unit": "%"}, {"measurement": "mortality at 100 ppm", "setting": "Ixodes ricinus; [6]", "result": 57.4, "unit": "%"}, {"measurement": "mortality at 100 ppm", "setting": "Ixodes ricinus; [7]", "result": 100, "unit": "%"}, {"measurement": "mortality at 100 ppm", "setting": "Ixodes ricinus; [8]", "result": 100, "unit": "%"}, {"measurement": "mortality at 1 ppm", "setting": "Ixodes ricinus; nymphs, 1 ppm, 1 h, read-out: average percentage of mortality of tick nymphs (moribund or dead nymphs)", "result": 0, "unit": "%"}, {"measurement": "mortality at 1 ppm", "setting": "Ixodes ricinus; nymphs, 1 ppm, 3 h, read-out: average percentage of mortality of tick nymphs (moribund or dead nymphs)", "result": 0, "unit": "%"}, {"measurement": "mortality at 1 ppm", "setting": "Ixodes ricinus; nymphs, 1 ppm, 6 h, read-out: average percentage of mortality of tick nymphs (moribund or dead nymphs)", "result": 14.1, "unit": "%"}, {"measurement": "mortality at 1 ppm", "setting": "Ixodes ricinus; nymphs, 1 ppm, 12 h, read-out: average percentage of mortality of tick nymphs (moribund or dead nymphs)", "result": 35.4, "unit": "%"}, {"measurement": "mortality at 1 ppm", "setting": "Ixodes ricinus; nymphs, 1 ppm, 24 h, read-out: average percentage of mortality of tick nymphs (moribund or dead nymphs)", "result": 56.4, "unit": "%"}, {"measurement": "mortality at 1 ppm", "setting": "Ixodes ricinus; nymphs, 1 ppm, 48 h, read-out: average percentage of mortality of tick nymphs (moribund or dead nymphs)", "result": 97.2, "unit": "%"}, {"measurement": "mortality at 1 ppm", "setting": "Ixodes ricinus; nymphs, 1 ppm, 72 h, read-out: average percentage of mortality of tick nymphs (moribund or dead nymphs)", "result": 100, "unit": "%"}, {"measurement": "mortality at 1 ppm", "setting": "Ixodes ricinus; nymphs, 1 ppm, 96 h, read-out: average percentage of mortality of tick nymphs (moribund or dead nymphs)", "result": 100, "unit": "%"}, {"measurement": "mortality at 10 ppm", "setting": "Ixodes ricinus; [9]", "result": 0, "unit": "%"}, {"measurement": "mortality at 10 ppm", "setting": "Ixodes ricinus; [10]", "result": 12.7, "unit": "%"}, {"measurement": "mortality at 10 ppm", "setting": "Ixodes ricinus; [11]", "result": 35.5, "unit": "%"}, {"measurement": "mortality at 10 ppm", "setting": "Ixodes ricinus; [12]", "result": 54.7, "unit": "%"}, {"measurement": "mortality at 10 ppm", "setting": "Ixodes ricinus; [13]", "result": 88.1, "unit": "%"}, {"measurement": "mortality at 10 ppm", "setting": "Ixodes ricinus; [14]", "result": 100, "unit": "%"}, {"measurement": "mortality at 10 ppm", "setting": "Ixodes ricinus; [15]", "result": 100, "unit": "%"}, {"measurement": "mortality at 10 ppm", "setting": "Ixodes ricinus; [16]", "result": 100, "unit": "%"}, {"measurement": "mortality at 100 ppm", "setting": "Ixodes ricinus; [9]", "result": 0, "unit": "%"}, {"measurement": "mortality at 100 ppm", "setting": "Ixodes ricinus; [10]", "result": 9.4, "unit": "%"}, {"measurement": "mortality at 100 ppm", "setting": "Ixodes ricinus; [11]", "result": 45.3, "unit": "%"}, {"measurement": "mortality at 100 ppm", "setting": "Ixodes ricinus; [12]", "result": 69.5, "unit": "%"}, {"measurement": "mortality at 100 ppm", "setting": "Ixodes ricinus; [13]", "result": 95.5, "unit": "%"}, {"measurement": "mortality at 100 ppm", "setting": "Ixodes ricinus; [14]", "result": 100, "unit": "%"}, {"measurement": "mortality at 100 ppm", "setting": "Ixodes ricinus; [15]", "result": 100, "unit": "%"}, {"measurement": "mortality at 100 ppm", "setting": "Ixodes ricinus; [16]", "result": 100, "unit": "%"}, {"measurement": "ticks affected (convulsion, morbidity or death of ticks)", "setting": "Ixodes ricinus; from 1 hour of exposure, regardless of the concentration tested (1, 10, 100 ppm)", "result": 100, "unit": "%"}, {"measurement": "mortality of the bees in the hive (in words)", "setting": "bees", "result": "increase in the mortality of the bees"}, {"measurement": "Varroacid effect in the hive (in words)", "setting": "Varroa destructor", "result": "allows to have a Varroacid effect"}]}]}
